Test results from patent US10578610B2, “Peptide regulators of mitochondrial fusion and methods of use” (priority 2016, dated 2020).
Like-named read-outs stand apart in the source and are kept apart here. Ends that are not written are not given here.

Tests used:
[1] = system: WT MEFs; format: cell-based, murine; settings: for mitochondrial aspect ratio (effect of TAT fusion construct): WT MEFs, varying concentrations / time course; for EC50: mitochondrial aspect ratio dose response; for EC50 / half-time for mitochondrial shape change: MEFs; for half-time for mitochondrial shape change: time course
Experimental: MEFs or neurons were grown on chamber slides and infected with recombinant adenoviri for 48-72 hours unless otherwise indicated. MEFs were stained with MitoTracker Green (200 nM, Invitrogen M7514) and Blue Hoechst (10 mg/ml, Invitrogen H3570), with or without tetramethylrhodamine ethyl ester (TMRE; 200 nM, Invitrogen T-669). Neuronal mitochondria were labeled with adenoviral-expressed mitoGFP plus TMRE, or with adeno-mitoDsRed for time-lapse studies. Cover slips were loaded onto a chamber (Warner instrument, RC-40LP) in modified Krebs-Henseleit buffer (138 mM NaCl, 3.7 mM KCl, 1.2 mM KH2PO4, 15 mM Glucose, 20 mM HEPES and 1 mM CaCl2) at room temperature and visualized on a Nikon Ti Confocal microscope equipped with a 60×1.3 NA oil immersion objective. For mitophagy studies MEFs were stained with MitoTracker Green and infected with adeno-mcherry Parkin or stained with LysoTracker Deep Red (50 nM, Invitrogen L-7528); carbonylcyanide p-trifluoromethoxyphenylhydrazone (FCCP, 10 μM for 1 hour) was applied as a positive control. Mitochondrial fusion was measured at 2 and 6 hours after PEG-mediated cell fusion of MEFs treated 48 hours previously with adeno-mitoGFP or adeno-mitoDsRed (Chen et al., 2005, J Biol Chem, 280:26185-26192). Laser confocal fluorescence was excited with 561 nm (MitoTracker Green, GFP, FITC), 637 nm (TMRE, LysoTracker Red, mcherry-Parkin, MitoTracker Orange) or 408 nm (Blue Hoechst) laser diodes. Image analysis—Mitochondrial aspect ratio was calculated using automated edge detection and Image J software (Song et al., 2015, Cell Metab, 21:273-285). Mitochondrial depolarization was calculated as % of green mitochondria visualized on MitoTracker Green and TMRE merged images, expressed as green/(green+yellow mitochondria)×100. Parkin aggregation was calculated as % of cells with mitochondrial clumping of mcherry-Parkin (Song et al., 2015, Cell Metab, 21:273-285). Lysosomal engulfment of mitochondria was identified by colocalization of LysoTracker Red and MitoTracker Green (Song et al., 2015, Cell Metab, 21:273-285).
TAT47-57 is a well-characterized “carrier” peptide able to promote active cellular peptide uptake. Specifically, a linear peptide was constructed in which the hMfn2 modulatory peptide was linked by a peptide bond at its C-terminus to a Gly-Gly dipeptide linker whose C-terminus was linked by a peptide bond to the TAT47-57 peptide having the sequence YGRKKRRQRRR (SEQ ID NO:25). The resultant linear fusion-promoting peptide conjugate comprises the sequence […] (SEQ ID NO:23). The fusion-inhibiting linear peptide has the sequence […] (SEQ ID NO:24). Except for dose-response studies, stock concentrations of TAT-minipeptides in sterile water were applied to cultured MEFs at a dilution factor of 1:2000 to achieve final concentrations of 1 or 5 μM.
The functional consequences of the Mfn2 HR1-derived peptides were defined after synthesizing them as C-terminal TAT47-57 conjugates to promote active cellular uptake. Mitochondrial fusion can be detected by mixing of organellar contents (Chen et al., 2005, J Biol Chem, 280:26185-26192). […] (FIG. 8A, scale bar is 20 microns). Mitochondrial aspect ratio changed in parallel with mitochondrial mixing (FIG. 8B).
Experiments were performed with these shortened variants fused to a carrier peptide via a linker according to the methods described in Example 5 above. Wildtype MEFs were treated with varying concentrations of peptide fusion constructs described in Table 4 and mitochondrial aspect ratios determined. A dose response curve for TetherX-N and -C variants are shown in FIG. 17A (squares are data for TetherX-N and circles are for TetherX-C). The dose response curve for GoFuse-N and -C variants are shown in FIG. 17B (squares are for GoFuse-N and circles are for GoFuse-C).

[2] = system: Mfn2 KO MEFs; assay: TAT-minipeptides in a cell model of Mfn2 deficiency; format: cell-based, murine; settings: 1 μM or 5 μM, 24 hours, data not shown
Description: Enhancing Mfn1- or Mfn2-mediated mitochondrial fusion with TAT-367-384 Gly has potential to alleviate mitochondrial morphological abnormalities like those evoked in CMT2A caused by nonsense or damaging non-synonymous Mfn2 mutations (Bombelli et al., 2014, JAMA Neurol, 71:1036-1042). It was reasoned that mitochondrial morphology would improve if endogenous normal Mfn1 or Mfn2 were assisted into their active conformations in which the D2 region is extended and/or available for interaction with the D2 region of a second Mfn protein (e.g., FIGS. 1B and 3B). This notion was tested in Mfn2 KO MEFs, a cell model of Mfn2 deficiency. WT MEFs and Mfn2 KO MEFs were treated with 1 μM or 5 μM TAT-367-384Gly peptide or TAT-398-418Gly peptide.

| Sequence | mitochondrial aspect ratio (effect of TAT fusion construct) [1] | EC50 ([1]; read-out: EC50 for mitochondrial elongation (enhanced fusion)) [nM] | half-time for mitochondrial shape change [1] | mitochondrial aspect ratio [2] | EC50 ([1]; read-out: EC50 for mitochondrial shortening (suppressed fusion)) [nM] |
| --- | --- | --- | --- | --- | --- |
| QIAEAVRGIMDSLHMAARGGYGRKKRRQRRR [TAT-367-384Gly] | increased the mitochondrial aspect ratio | 280 ± 90 | approximately 2 hours | normalized mitochondrial aspect ratio |  |
| QDRLKFIDKQGELLAQDYKLRGGYGRKKRRQRRR [TAT-398-418Gly] | decreased mitochondrial aspect ratio |  | approximately 2 hours | exaggerated mitochondrial shortening | 250 ± 90 |
